PMC12040169 (PLOS Biology, 2025)
≈ marks a conversion by molar mass, not a printed value.

Key:
B. adolescentis = system: T1, B. adolescentis; experiment: microbe, parasite or virus in culture; design: Microbial growth in liquid dilution assay, OD600 relative to DMSO control; conditions: Bifidobacterium adolescentis; estimated IC50; read-out: B. adolescentis, IC50 (µM) estimate
T1 construct: DSM 20083
Description: (§1) Compound effects on commensal microbes in dilution assay As our objective was to discover compounds that inhibit Chlamydia selectively but spare commensal bacteria, we further tested 15 of our top compounds (c1e–c10e and c1v–c5v) against five bacterial species, Escherichia coli, Lactobacillus reuteri, Enterococcus faecalis, Bacteroides thetaiotaomicron, and Bifidobacterium adolescentis, representing the four dominating phyla of the human gut microbiota. […] Exceptions were c3e and c5e, which at 30 µM were inhibitory to some species. […] Of note, c1e–c3e had little or no effect on the growth of an even larger set of species of gut bacteria, also including Blautia coccoides, Prevotella copri, Prevotella histicola, Bacteroides fragilis, and Dubosiella newyorkensis, when tested in radial diffusion assays, in which the bacteria were exposed to compounds for 24–48 h before measurements of growth inhibition zones (S10B Fig and S5G Data).

B. thetaiotaomicron = system: T2, B. thetaiotaomicron; experiment: microbe, parasite or virus in culture; design: Microbial growth in liquid dilution assay, OD600 relative to DMSO control; conditions: Bacteroides thetaiotaomicron; estimated IC50; read-out: B. thetaiotaomicron, IC50 (µM) estimate
T2 construct: DSM 2079
Description: as §1

E. coli = system: T3, E. coli; experiment: microbe, parasite or virus in culture; design: Microbial growth in liquid dilution assay, OD600 relative to DMSO control; conditions: Escherichia coli; estimated IC50; read-out: E. coli, IC50 (µM) estimate
T3 construct: DSM 301
Description: as §1

E. faecalis = system: T4, E. faecalis; experiment: microbe, parasite or virus in culture; design: Microbial growth in liquid dilution assay, OD600 relative to DMSO control; conditions: Enterococcus faecalis; estimated IC50; read-out: E. faecalis, IC50 (µM) estimate
T4 construct: DSM 20478
Description: as §1

L. reuteri = system: T5, L. reuteri; experiment: microbe, parasite or virus in culture; design: Microbial growth in liquid dilution assay, OD600 relative to DMSO control; conditions: Limosilactobacillus reuteri; estimated IC50; read-out: L. reuteri, IC50 (µM) estimate
T5 construct: DSM 20016
Description: as §1

[1] = system: T6, CTL2-GFP (C. trachomatis L2/434/Bu, GFP-expressing); experiment: microbe, parasite or virus in culture; design: Intracellular C. trachomatis growth in HeLa cells, bulk GFP fluorescence relative to DMSO; conditions: Chlamydia trachomatis, HeLa, 28.5 h; bulk GFP
T6 construct: L2/434/Bu, GFP-expressing
Protocol: (§2) MICs were calculated as described above.

[2] = system: T6, CTL2-GFP (C. trachomatis L2/434/Bu, GFP-expressing); experiment: microbe, parasite or virus in culture; design: species or system HeLa; Intracellular C. trachomatis growth in HeLa cells, bulk GFP fluorescence relative to DMSO; conditions: Chlamydia trachomatis, 28.5 h; bulk GFP
Protocol: as §2

in vitro = experiment: in vitro; design: Viability of infected HeLa host cells, resazurin conversion, bulk resorufin fluorescence relative to DMSO; conditions: human, hela cells; bulk resorufin, mean of 3
[3] = system: T6, CTL2-GFP (C. trachomatis L2/434/Bu, GFP-expressing); experiment: microbe, parasite or virus in culture; design: C. trachomatis growth in HeLa, dose-response, mean of bulk GFP fluorescence and imaged total inclusion area; conditions: Chlamydia trachomatis, HeLa, 28.5 h; mean of GFP and inclusion area
Method in brief: (§3)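 Screening measures GFP fluorescence from the reporter strain and resorufin fluorescence for host viability, with Hoechst-based imaging of fixed cells adding inclusion area, inclusion number and nuclei count per well.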

[4] = system: T6, CTL2-GFP (C. trachomatis L2/434/Bu, GFP-expressing); experiment: microbe, parasite or virus in culture; design: species or system HeLa; C. trachomatis growth in HeLa, dose-response, mean of bulk GFP fluorescence and imaged total inclusion area; conditions: Chlamydia trachomatis, 28.5 h; mean of GFP and inclusion area
Method in brief: as §3

| Structure (SMILES) | IC50 (B. adolescentis) [µM] | IC50 (B. thetaiotaomicron) [µM] | IC50 (E. coli) [µM] | IC50 (E. faecalis) [µM] | IC50 (L. reuteri) [µM] | IC50 [1] [µM] | MIC [2] [µM] | viability at 28.5 h, 0.000416667 µM (in vitro) [%] | viability at 28.5 h, 0.00125 µM (in vitro) [%] | viability at 28.5 h, 0.00375 µM (in vitro) [%] | viability at 28.5 h, 0.0123333 µM (in vitro) [%] | viability at 28.5 h, 0.037 µM (in vitro) [%] | viability at 28.5 h, 0.111 µM (in vitro) [%] | viability at 28.5 h, 0.333 µM (in vitro) [%] | viability at 28.5 h, 1 µM (in vitro) [%] | viability at 28.5 h, 3 µM (in vitro) [%] | viability at 28.5 h, 10 µM (in vitro) [%] | viability at 28.5 h, 30 µM (in vitro) [%] | IC50 [3] [µM] | MIC [4] [µM] |
| --- | --- | --- | --- | --- | --- | --- | --- | --- | --- | --- | --- | --- | --- | --- | --- | --- | --- | --- | --- | --- |
| Cc1cc(NS(=O)(=O)c2ccc(NC(=O)COc3ccc(Cl)c(C)c3)cc2)no1 [c3v] | > 30 | > 30 | > 30 | > 30 | > 30 | 0.773 | 0.829 (≈ 0.361 µg/mL) | – | – | – | – | – | – | – | – | – | – | – | – | – |
| COc1c(Br)cc2c(cc(C)n2-c2ccccc2)c1OCC(O)CNC(C)C (centres unmarked) [c5e] | 10.3 | > 30 | > 30 | > 30 | > 30 | – | – | 87.7 | 89.3 | 86.3 | 90.9 | 88.9 | 91.6 | 87.6 | 92.4 | 89.5 | 97 | 0 | 0.375 | 0.767 (≈ 0.343 µg/mL) |
| CNC(=S)N1CCN(c2nsc3ccccc23)CC1 [c6e] | > 30 | > 30 | > 30 | > 30 | > 30 | – | – | 103 | 100 | 99.1 | 101 | 97.3 | 105 | 101 | 108 | 103 | 102 | 76 | 0.413 | 0.771 (≈ 0.225 µg/mL) |
| N#Cc1c(Nc2cccc(C(F)(F)F)c2)sc(C(=O)c2ccc3c(c2)OCO3)c1N [c8e] | > 30 | > 30 | > 30 | > 30 | > 30 | – | – | 88 | 94.7 | 88.4 | 85.7 | 86 | 87.3 | 85.7 | 94.3 | 81.6 | 77.1 | 62.5 | 0.567 | 0.936 (≈ 0.404 µg/mL) |
| O=C(Nc1ccc(F)c(F)c1)NC1CCC2CN(CCOc3ccccc3)CC2C1 (centres unmarked) [c9e] | > 30 | > 30 | > 30 | > 30 | > 30 | – | – | 90.2 | 92.6 | 90.8 | 91.5 | 89 | 92 | 91.6 | 94.6 | 92.9 | 95.3 | 102 | 0.641 | 2.63 (≈ 1.09 µg/mL) |
| O=C(N/N=C/c1ccc(Sc2cccc3cccnc23)o1)c1cccc(F)c1 [c10e] | > 30 | > 30 | > 30 | > 30 | > 30 | – | – | 84.5 | 93.8 | 84.5 | 91.6 | 82.9 | 92.9 | 88 | 94.1 | 89.3 | 89.9 | 81.1 | 0.828 | 5.57 (≈ 2.18 µg/mL) |
| O=C(NCCc1c[nH]c2ccc(Cl)cc12)c1c(F)ccc(Cl)c1F [c42e] | – | – | – | – | – | – | – | 100 | 101 | 98.1 | 104 | 99.6 | 101 | 106 | 109 | 107 | 103 | 107 | 5.3 | 5.43 (≈ 2 µg/mL) |
| Oc1c(CN2CCN(c3ccc(F)cc3)CC2)cc(Br)c2cccnc12 [c43e] | – | – | – | – | – | – | – | 97.2 | 91.7 | 92.6 | 88.5 | 91.8 | 86.8 | 90 | 86.1 | 88.5 | 84.3 | 85.2 | 5.48 | 9.58 (≈ 3.99 µg/mL) |
| FC(F)(F)c1ccc(N2CCNCC2)nc1OCc1ccc2c(c1)OCCO2 [c46e] | – | – | – | – | – | – | – | 85.8 | 88.5 | 88.8 | 94.6 | 90.4 | 93.4 | 88.9 | 91.1 | 94 | 97.2 | 11.7 | 6.17 | 11.3 (≈ 4.47 µg/mL) |
| Cn1cc(C(c2ccc(OCC(=O)O)cc2)c2cn(C)c3ccccc23)c2ccccc21 [c48e] | – | – | – | – | – | – | – | 87.9 | 89.6 | 87.2 | 88.7 | 88.5 | 89.5 | 89.6 | 93.9 | 93.8 | 97.6 | 87.9 | 6.69 | 8.4 (≈ 3.56 µg/mL) |
